Test results reported in patent US20260001889A1, “COMPOSITIONS USEFUL FOR MODULATING SPLICING” (Skyhawk Therapeutics, Inc., priority 2022, published 2026).

How the values were obtained:
[1] = system: ATXN3 transcripts containing exon 4; assay: ATXN3 Quantitative Splicing Assay (qPCR, E4E5 primers/probe); assay type: cell-based; conditions: Homo sapiens, SK-N-MC cells, compounds for 24 h
In short: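 SK-N-MC human neuroblastoma cells treated 24 h with compound from 30 μM to 0.6 nM, 24 h after plating. Lysate cDNA was run in TaqMan qPCR, with primers/probe E4E5 detecting exon 4-containing ATXN3 transcripts and E8E9 measuring total ATXN3.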

ATXN3-HiBiT protein = assay: ATXN3 Total Protein Assay (Kelly-ATXN3-HiBiT luminescence); assay type: cell-based; conditions: Kelly-ATXN3-HiBiT cells, 48 h after addition of compound
In short: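 Kelly cells with homozygous C-terminal HiBiT knock-in on endogenous ATXN3, 2000 per well, dosed 24 h after seeding. HiBiT lytic luminescence read 48 h after compound; sister plate read with CellTiter-Glo for viability; fold change vs DMSO.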

total ATXN3 protein = assay: ATXN3 Total Protein Assay (Mesoscale Discovery, SK-N-MC cells); assay type: cell-based, Human; conditions: incubation for 48 hours, MSD assay
In short: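 Human SK-N-MC neuroblastoma cells treated with compound at 30 μM to 0.6 nM for 48 h, then lysed with protease inhibitors. Total ATXN3 quantified by MSD sandwich immunoassay (mouse capture, rabbit detect antibodies, anti-rabbit MSD-ST secondary) against recombinant ATXN3 standards.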

Compound: C[C@@H](F)[C@H](N)Cc1oc2c(NCc3ccccc3)cc(Cl)nc2c1Br [Compound 93, 2-[(2R,3R)-2-amino-3-fluorobutyl]-7-benzylamino-3-bromo-5-chloro-1-oxa-4-azaindene]
- IC50 [1]: 501 to 5000 nM
- EC50 (ATXN3-HiBiT protein): 501 to 5000 nM
- IC50 (total ATXN3 protein): 501 to 5000 nM

Compound: C[C@H](F)[C@H](N)Cc1oc2c(NCc3ccc(F)s3)cc(Cl)nc2c1Br [Compound 94, 2-[(2R,3S)-2-amino-3-fluorobutyl]-3-bromo-5-chloro-7-{[(5-fluoro-2-thienyl)methyl]amino}-1-oxa-4-azaindene]
- IC50 [1]: 101 to 500 nM
- EC50 (ATXN3-HiBiT protein): 101 to 500 nM
- IC50 (total ATXN3 protein): 101 to 500 nM

Compound: C[C@@H](F)[C@H](N)Cc1oc2c(NCc3ccc(F)s3)cc(Cl)nc2c1Br [Compound 95, 2-[(2R,3R)-2-amino-3-fluorobutyl]-3-bromo-5-chloro-7-{[(5-fluoro-2-thienyl)methyl]amino}-1-oxa-4-azaindene]
- IC50 [1]: 501 to 5000 nM
- EC50 (ATXN3-HiBiT protein): 501 to 5000 nM
- IC50 (total ATXN3 protein): 501 to 5000 nM

Compound: C[C@H](F)[C@H](N)Cc1oc2c(NCc3sccc3F)cc(Cl)nc2c1Br [Compound 96, 2-[(2R,3S)-2-amino-3-fluorobutyl]-3-bromo-5-chloro-7-{[(3-fluoro-2-thienyl)methyl]amino}-1-oxa-4-azaindene]
- IC50 [1]: 101 to 500 nM
- EC50 (ATXN3-HiBiT protein): 101 to 500 nM
- IC50 (total ATXN3 protein): 101 to 500 nM

Compound: C[C@@H](F)[C@H](N)Cc1oc2c(NCc3sccc3F)cc(Cl)nc2c1Br [Compound 97, 2-[(2R,3R)-2-amino-3-fluorobutyl]-3-bromo-5-chloro-7-{[(3-fluoro-2-thienyl)methyl]amino}-1-oxa-4-azaindene]
- IC50 [1]: 501 to 5000 nM
- EC50 (ATXN3-HiBiT protein): 501 to 5000 nM
- IC50 (total ATXN3 protein): 501 to 5000 nM

Compound: N[C@H](Cc1oc2c(NCc3cccs3)cc(Cl)nc2c1Br)C1COC1 [Compound 98, 2-[(R)-2-amino-2-(3-oxetanyl)ethyl]-3-bromo-5-chloro-7-thenylamino-1-oxa-4-azaindene]
- IC50 [1]: 501 to 5000 nM
- EC50 (ATXN3-HiBiT protein): 501 to 5000 nM
- IC50 (total ATXN3 protein): 501 to 5000 nM

Compound: C[C@H](F)[C@H](N)Cc1oc2c(NCc3cccs3)cc(C#N)nc2c1Br [Compound 103, 2-[(2R,3S)-2-amino-3-fluorobutyl]-3-bromo-7-thenylamino-1-oxa-4-aza-5-indenecarbonitrile]
- IC50 [1]: 101 to 500 nM
- EC50 (ATXN3-HiBiT protein): 101 to 500 nM
- IC50 (total ATXN3 protein): 101 to 500 nM

Compound: Cc1c(C[C@@H](N)[C@H](C)F)oc2c(NCc3ccc(F)s3)cc(Cl)nc12 [Compound 105, 2-[(2R,3S)-2-amino-3-fluorobutyl]-5-chloro-7-{[(5-fluoro-2-thienyl)methyl]amino}-3-methyl-1-oxa-4-azaindene]
- IC50 [1]: 101 to 500 nM
- EC50 (ATXN3-HiBiT protein): 501 to 5000 nM
- IC50 (total ATXN3 protein): 501 to 5000 nM

Compound: Cc1c(C[C@@H](N)[C@H](C)F)oc2c(NCc3nccs3)cc(Cl)nc12 [Compound 106, 2-[(2R,3S)-2-amino-3-fluorobutyl]-5-chloro-3-methyl-7-{[(1,3-thiazol-2-yl)methyl]amino}-1-oxa-4-azaindene]
- IC50 [1]: 101 to 500 nM
- EC50 (ATXN3-HiBiT protein): 101 to 500 nM
- IC50 (total ATXN3 protein): 101 to 500 nM

Compound: Cc1c(C[C@@H](N)[C@H](C)F)oc2c(NCc3ccccc3)cc(Cl)nc12 [Compound 107, 2-[(2R,3S)-2-amino-3-fluorobutyl]-7-benzylamino-5-chloro-3-methyl-1-oxa-4-azaindene]
- IC50 [1]: 101 to 500 nM
- EC50 (ATXN3-HiBiT protein): 101 to 500 nM
- IC50 (total ATXN3 protein): 501 to 5000 nM

Compound: C[C@H](F)[C@H](N)Cc1oc2c(NCc3ccc(F)s3)cc(Cl)nc2c1Cl [Compound 108, 2-[(2R,3S)-2-amino-3-fluorobutyl]-3,5-dichloro-7-{[(5-fluoro-2-thienyl)methyl]amino}-1-oxa-4-azaindene]
- IC50 [1]: 101 to 500 nM
- EC50 (ATXN3-HiBiT protein): 101 to 500 nM
- IC50 (total ATXN3 protein): 101 to 500 nM

Compound: C[C@H](F)[C@H](N)Cc1oc2c(NCc3nccs3)cc(Cl)nc2c1Cl [Compound 109, 2-[(2R,3S)-2-amino-3-fluorobutyl]-3,5-dichloro-7-{[(1,3-thiazol-2-yl)methyl]amino}-1-oxa-4-azaindene]
- IC50 [1]: 0.01 to 100 nM
- EC50 (ATXN3-HiBiT protein): 101 to 500 nM
- IC50 (total ATXN3 protein): 0.01 to 100 nM
